Measurements: patent US12090147B2, “Combination therapy with 2-(4-chlorophenyl)-N-((2-(2,6-dioxopiperidin-3-yl)-1-oxoisoindolin-5-yl)methyl)-2,2-difluoroacetamide” (Celgene Corporation, priority 2019, dated 2024)

How the values were obtained:
physchem = details: aqueous buffer
MV4-11 = assay: Caspase 8/FLICE activity colorimetric assay; assay type: cell-based, human; details: compounds at 1 μM, 24, 48 and 72 hours
Experimental: (§1) Next, tests were performed to see if caspase 8 activation alone is sufficient to mediate IL-1β induction. […] To ensure caspase 8 activity was captured at an appropriate time frame, caspase 8 activation levels at 24, 48 and 72 hours were measured (FIGS. 3C and 3D) using a caspase 8/FLICE activity colorimetric assay.

ML-2 [1] = assay: Caspase 8/FLICE activity colorimetric assay; assay type: cell-based, human; details: compounds at 1 μM, 24, 48 and 72 hours
Experimental: as §1

[2] = system: ML-2, MV4-11 and MOLM13 cell lines; assay: VEGF and TNFa levels, electrochemiluminescence assay; assay type: cell-based, human; details: compared to other mechanistic agents
Experimental: (§2) IL-1α (Meso Scale Disgnostics, Cat No. K151RBD), IL-1β (Meso Scale Disgnostics, Cat No. K151QPD), IL-1RA (Meso Scale Disgnostics, Cat No. K151WTD), IL-18 (Meso Scale Disgnostics, Cat No. K151VJK), TNFa (Meso Scale Disgnostics, Cat No. K151QWD), VEGF Meso Scale Disgnostics, Cat No. K151RHD) levels were measured by (Meso Scale Disgnostics assay kits following manufacturer's instructions. Measurements were made on a MESO™ SECTOR S 600 plate reader (Meso Scale Disgnostics).
To further explore the mechanisms underlying IL-1β induction by Compound 1, and compounds with different, but related mechanisms to Compound 1 were tested in three AML cell lines, ML-2, MV4-11 and MOLM-13 (FIG. 4 and FIG. 5). Compound 1 degrades GSPT1 through cereblon mediated protein degradation, which leads to global translation inhibition, activation of ISR and subsequently apoptosis. […] To assess if GSPT1 degradation leads to pan-cytokine induction or specific to IL-1β, the compound effect was compared on the levels of two other known hypotension inducing cytokines, TNFa and VEGF (FIG. 7).

[3] = system: Normal Peripheral Blood Mononuclear Cells; assay: Cytokine induction, electrochemiluminescence assay of culture supernatant; assay type: cell-based, human; details: PBMC
Experimental: Normal PBMCs were purchased from AllCells (Cat No. PB006F). Primary AML BMMC in were purchased from Conversant (SKU ID: BBM1000-E1110036458110215SH) or Fidelis Research (AML55, AML57, AML73, AML74, AML76, AML79, AML80, AML81, AML84, AML95). Bone marrow from health donor was purchased from StemCell Technologies (Cat No. 70001.2).
Normal PBMCs were cultured in RPMI-1640 (ATCC Cat No. 30-2001) containing 20% fetal bovine serum (Corning Cat No. 35-010-CV). Primary AML and bone marrows were cultured in Complete Medium Cytokines 1X: StemSpam™ Serum-Free Expansion Medium (StemCell Technologies Cat No. 09650) supplemented with 50 ng/mL Stem Cell Factor (Peprotech Cat No. 300-07), 50 ng/mL recombinant Human FLT3-Ligand (Peprotech Cat No. 300-19), 20 ng/mL recombinant human-interleukin-3 (Peprotech Cat No. 200-03), […] recombinant human-interleukin-6 (Peprotech Cat No. 200-06), 1 μM StemRegenin (StemCell Technologies Cat No. 72342), penicillin/streptomycin (Invitrogen Cat No. 15140122).
as §2
(§3) Cell proliferation (CTG) and caspase 3/7 activation (IncuCyte) were analyzed using GraphPad Prism. Electrochemiluminescence data was analyzed using MSD Discovery Workbench platform.
(§4) The level of intracellular pro IL-1β and released IL-1β in eight AML cell lines and normal PBMC treated with a titration of Compound 1 over a 48 hour period was assessed. (see FIGS. 1A-1C, Table 2). Supernatant IL-1βb level was induced over 5 fold in 6 out of 8 AML cell lines and normal PBMC upon Compound 1 treatment compared to DMSO (FIGS. 1A, 1B, and 1C, Table 2).

TF-1 = assay: as above; assay type: cell-based, human
Experimental: (§5) For cytokine assays on AML cell lines, cells were seeded at 1 million per mL, 3 mL per well of 6-well plates and allowed set overnight. The next day, cells were treated with 3 μL 1000× working stock of compounds of interest.
(§6) Human AML cell lines, HL-60 (CCL-240), KG-1 (CCL-246), ML-2 (ACC-15), MOLM-13 (ACC-554), MV-4-11 (CRL-9591), NOMO-1 (ACC-542), TF-1 (CRL-2003), THP-1 (TIB-202), and U937 (CRL-1593) were obtained from American Type Culture Collection (ATCC; Manassas, VA) or Deutsche Sammlung von Mikroorganismen and Zellkulturen (DSMZ, Germany) cell banks. Acute myeloid leukemia cell lines were maintained in RPMI-1640 (ATCC Cat No. 30-2001) containing 20% fetal bovine serum (FBS) (Corning Cat No. 35-010-CV) and maintained in humidified incubators at 5% carbon dioxide.
as §2, §3, §4

U937 = assay: as above; assay type: cell-based, human
Experimental: as §5, §6, §2, §3, §4

NOMO-1 = assay: as above; assay type: cell-based, human
Experimental: as §5, §6, §2, §3, §4

[4] = system: MOLM13 cell pair expressing wildtype GSPT1 or GSPT1 G575N; assay: Isogenic cell pair, endogenous GSPT1 vs non-degradable GSPT1 G575N; assay type: cell-based, human; details: MOLM13 overexpressing GSPT1 G575N
Description: To further confirm if IL-1β induction is an on-target effect of GSPT1 degradation, intracellular pro-IL-1β and secreted IL-1βb levels in response to Compound 1 treatment were compared in an isogenic MOLM13 cell pair either expressing endogenous wildtype GSPT1 or overexpressing a non-degradable form of GSPT1 G575N.

ML-2 [5] = assay: Cytokine induction, electrochemiluminescence assay of culture supernatant; assay type: cell-based, human; details: compounds at 1 μM, 72 hours
ML-2 [6] = assay: Cell viability (CELL TITER-GLO), Compound 1 IC50 / dose response; assay type: cell-based; details: Homo sapiens; ML-2 (monocytic, FAB M4)
Experimental: For CELL TITER-GLO® (CTG; Promega) and Incucyte assays, cells were seeded at 0.1 million per mL, 50 μL per well of Corning black 384-well plate and allowed set overnight. The next day, test compounds were dispensed using a Tecan D300e digital dispenser according to manufacturer's instruction.
Human AML cell lines, HL-60 (CCL-240), KG-1 (CCL-246), ML-2 (ACC-15), MOLM-13 (ACC-554), MV-4-11 (CRL-9591), NOMO-1 (ACC-542), TF-1 (CRL-2003), THP-1 (TIB-202), and U937 (CRL-1593) were obtained from American Type Culture Collection (ATCC; Manassas, VA) or Deutsche Sammlung von Mikroorganismen and Zellkulturen (DSMZ, Germany) cell banks. […]
AML cell lines and primary AML were treated in duplicate or triplicates with DMSO or test compounds in 384-well plates for 3 days. Cell viability was determined by CELL TITER-GLO® (CTG; Promega) assay kit according to manufacturer's instructions. Apoptosis was monitored using Caspase 3/7 Green reagent (Essen Biosciences Cat No. 4440). Caspase-3/7 activation levels were quantified using the IncuCyte™ ZOOM basic analyzer.
as §3

Q: Which solubility (physchem) does the source give for `O=C1CCC(N2Cc3cc(CNC(=O)C(F)(F)c4ccc(Cl)cc4)ccc3C2=O)C(=O)N1` (stereo not shown) [Compound 1, 2-(4-chlorophenyl)-N-((2-(2,6-dioxopiperidin-3-yl)-1-oxoisoindolin-5-yl)methyl)-2,2-difluoroacetamide] here?
A: ≤ 1 µg/mL

Q: What about the “Caspase 8 activation level” value (MV4-11) of the same compound?
A: not the most efficient caspase 8 activating compound across all time points tested

Q: And the “Caspase 8 activation level” value (ML-2 [1])?
A: not the most efficient caspase 8 activating compound across all time points tested

Q: What about the “VEGF and TNFa levels” value [2] of the same compound?
A: did not induce more VEGF nor TNFa compared to other mechanistic agents

Q: And the IL-1β induction [3]?
A: 1.88

Q: What about the IL-18 induction [3] of the same compound?
A: 0.90

Q: What about the IL-1β induction (TF-1) of the same compound?
A: 1.41

Q: And the IL-18 induction (TF-1)?
A: 0.64

Q: And the IL-1β induction (U937)?
A: 1.28

Q: And the IL-18 induction (U937)?
A: 0.41

Q: What about the IL-1β induction (NOMO-1) of the same compound?
A: 1.34

Q: And the IL-18 induction (NOMO-1)?
A: 0.24

Q: And the “Compound 1 mediated GSPT1 degradation, caspase 3 activation and viability loss” value [4]?
A: complete resistance

Q: What about the “Pro-IL-1β, intracellular and supernatant IL-1β induction” value [4] of the same compound?
A: completely blocked

Q: What about the “Secreted IL-1β levels, panel of mechanistic compounds” value (ML-2 [5]) of the same compound?
A: produced markedly more secreted IL-1β compared to all other compounds tested

Q: And the IC50 (ML-2 [6])?
A: 15.1 nM
